Source: the CheMixHub ionic liquid set

Test: xn = mol fraction of the nth substance listed
Conditions: for electrical conductivity: frequency 3 MHz

CCOS(=O)(=O)[O-].CC[n+]1ccn(C)c1 + CS(C)=O
101 kPa, x1 = 0.3333
Conditions	viscosity [mPa·s]
288.15 K	3.92
293.15 K	3.53
313.15 K	2.26
348.15 K	1.27

CC[NH+](CC)CC.O=P([O-])(O)O + CS(C)=O
viscosity [mPa·s], 101 kPa
Conditions	298.15 K	303.15 K	308.15 K
x2 = 0	64.3	57.1	49.5
x2 = 0.0242	61.3	54.6	47.55
x2 = 0.0507	58.2	51.7	45.51
x2 = 0.1295	49.7	44.43	39.41
x2 = 0.1963	43.47	38.82	34.74
x2 = 0.2596	37.82	34.13	30.67
x2 = 0.3272	32.61	29.61	26.81
x2 = 0.3878	28.47	26.13	23.64
x2 = 0.4494	24.64	22.94	20.75
x2 = 0.5141	21.1	19.68	17.92
x2 = 0.5888	17.29	16.43	14.93
x2 = 0.6387	15	14.42	13.14
x2 = 0.7055	12.26	11.95	10.82
x2 = 0.7616	10.18	9.98	9.01
x2 = 0.8342	7.58	7.36	6.75
x2 = 0.8828	5.7	5.6	5.23
x2 = 0.9272	4.37	4.24	3.84
x2 = 0.9543	3.31	3.2	2.98
x2 = 0.9772	2.7	2.56	2.33

COCCCC[n+]1ccn(C)c1.C[C@@H](O)[C@H](N)C(=O)[O-] + CS(C)=O
viscosity [mPa·s], 100 kPa
Conditions	x1 = 0.0999	x1 = 0.2013	x1 = 0.3006	x1 = 0.3966	x1 = 0.5	x1 = 0.6011	x1 = 0.7007	x1 = 0.8001	x1 = 0.8946	x1 = 1
288.15 K	14.24	22.21	49.3	102.2	186.6	281	390	560	778	1030
293.15 K	12.05	18.12	37.45	74.9	132.1	192	264	371	503	647
298.15 K	9.53	15.09	30.16	56.54	94.4	135.2	181.5	254	340	424
303.15 K	7.91	12.7	24.02	43.12	69.4	97.9	131.7	179.9	234	290
308.15 K	6.67	10.74	19.82	33.94	52.97	74.4	98.5	133	168.7	205
313.15 K	5.86	9.49	16.58	27.18	39.95	53.5	69.5	90.7	108.9	132.9
318.15 K	5.2	8.31	13.95	21.6	31.33	41.63	53.64	69.5	80.3	98.5

Cn1cc[n+](CCCN)c1.F[B-](F)(F)F + CS(C)=O
101 kPa
Conditions	electrical conductivity [S/m]	viscosity [mPa·s]
293.15 K, x1 = 0.2997	0.537	42.06
293.15 K, x1 = 0.3997	0.334	58.56
293.15 K, x1 = 0.5999	0.151	96.13
293.15 K, x1 = 0.8998	0.032	161.7
298.15 K, x1 = 0.1003	1.08	10.17
298.15 K, x1 = 1	0.026	149.6
303.15 K, x1 = 0.2997	0.701	25.7
303.15 K, x1 = 0.7001	0.151	74.98
303.15 K, x1 = 0.8109	0.096	91.64
303.15 K, x1 = 0.8998	0.062	105.4
308.15 K, x1 = 0.8109	0.12	75.58
308.15 K, x1 = 1	0.055	100.2
313.15 K, x1 = 0.1003	1.544	5.27
313.15 K, x1 = 0.5999	0.323	40.83
313.15 K, x1 = 0.8109	0.15	62.45
318.15 K, x1 = 0.3997	0.71	19.73
318.15 K, x1 = 0.7001	0.264	42.06
323.15 K, x1 = 0.4998	0.576	22.1
323.15 K, x1 = 1	0.124	58.45
328.15 K, x1 = 0.1003	2.107	3.179
328.15 K, x1 = 0.2	1.611	6.358
328.15 K, x1 = 0.3997	0.922	14.21
333.15 K, x1 = 0.2997	1.4	8.621
333.15 K, x1 = 0.3997	–	12.05
338.15 K, x1 = 0.3997	1.17	10.36
338.15 K, x1 = 0.8109	0.381	26.89
338.15 K, x1 = 1	0.253	36.58
343.15 K, x1 = 0.1003	2.77	2.166
343.15 K, x1 = 0.5999	0.772	15.34
353.15 K, x1 = 0.3997	1.614	7.134
